Measured values from patent US5605929A, “Methods and compositions for inhibiting 5α-reductase activity” (priority 1995, dated 1997).

Key:
[1] = tested on: human prostate cancer (PC3 and LNCaP) cells; assay: 5α-reduction of testosterone by human prostate cancer cells; format: cell-based
[2] = tested on: prostate and preputial organ; assay: Catechins ip 7 days, large rats; format: in vivo, rat
Protocol: Male Sprague Dawley rats, 172±20 g body weight, were used. Each group had 5 rats. […] The control rats received 0.3 ml of 30% ethanol.

[3] = tested on: ventral prostate and preputial organ
Source text: Male Sprague-Dawley rats, 60±5 g body weight, were used. Each group had 6 rats, and all were castrated.

[4] = biological target: T1, human 5α-reductase isozyme type 2 (Homo sapiens, UniProt P31213); assay: [3H]4-MA binding, human type 2 isozyme expressed in Rat-1A cells; conditions: read-out: % Inhibition of [^3 H]4-MA binding
T1 construct: expressed in transfected cells; host or cells: Rat-1A cells infected with pMV7 retrovirus; microsomes of these cells
T1 sequence (P31213 1-254): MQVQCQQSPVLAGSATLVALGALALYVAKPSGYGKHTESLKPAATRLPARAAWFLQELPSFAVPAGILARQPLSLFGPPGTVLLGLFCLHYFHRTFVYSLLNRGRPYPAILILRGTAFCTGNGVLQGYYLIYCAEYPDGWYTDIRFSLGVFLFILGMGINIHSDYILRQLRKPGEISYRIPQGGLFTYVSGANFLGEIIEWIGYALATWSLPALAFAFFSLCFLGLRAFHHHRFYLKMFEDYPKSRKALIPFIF
Source text: (§1) The cDNAs for the human type 1 and 2 5α-reductases were isolated from human prostate λZAP II™ cDNA libraries using the published sequence of the 5α-reductases, PCR™ and standard library screening techniques (Sambrook et al., 1989). The type 1 and 2 cDNAs correspond to nucleotides 31-870 and 28-829, respectively, of the published sequences for these 5α-reductases (Anderson and Russell, 1990; Anderson et al., 1991). The type 1 and 2 cDNAs were subcloned into the retroviral expression vector pMV7 (Kirschmeier et al., 1988) and high titer stocks of virus containing the type 1 and 2 cDNAs were generated using the packaging cells BOSC 23 293 (Kirschmeier et al., 1988). Rat.-1A cells (Pear et al., 1993) were infected with virus (Topp, 1981) and cells containing integrated retrovirus were selected for G418-SO4 resistance, (Brown and Scott, 1987).
(§2) Microsomes were prepared as described previously (Liang and Liao, 1992) from the liver of adult Sprague-Dawley female rats or Rat-1A cells expressing a specific type of human 5α-reductase. […] The data presented was based on the rate of reaction.
(§3) [^3 H]4-MA binding assay were described in detail previously (Liang and Liao, 1992; Liang et al., 1983). […] The reaction was started by the addition of 25 μl of microsomes (25 μg protein). After 30-60 min incubation at 0° C., the [^3 H]4-MA bound to microsomes was collected on a Whatman GF/F glass fiber, washed and radioactivity determined (Liang and Liao, 1992).

[5] = biological target: T2, human 5α-reductase isozyme type 1 (Homo sapiens, UniProt P18405); assay: 4-[14C]testosterone reduction, human type 1 isozyme; format: biochemical; conditions: read-out: % Inhibition of 5α-reduction
T2 construct: expressed in transfected cells; host or cells: Rat-1A cells infected with pMV7 retrovirus; microsomes of these cells
T2 sequence (P18405 1-259): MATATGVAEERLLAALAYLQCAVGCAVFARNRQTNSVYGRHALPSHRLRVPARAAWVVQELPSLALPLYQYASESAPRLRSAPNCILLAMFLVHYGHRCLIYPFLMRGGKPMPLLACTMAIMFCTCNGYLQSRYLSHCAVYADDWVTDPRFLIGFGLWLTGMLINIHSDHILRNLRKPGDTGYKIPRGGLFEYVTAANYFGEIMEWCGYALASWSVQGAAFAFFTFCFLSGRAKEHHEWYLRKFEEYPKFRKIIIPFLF
Source text: as §1, §2
(§4) The reaction was started by the addition of 25 μl of microsomes (25 μg protein). The mixture was incubated at 37° for 30-60 min and stopped by addition of 0.5 ml of ethyl acetate and mixing for 1 min. The organic solvent extract was removed under vacuum.

[6] = biological target: T2, human 5α-reductase isozyme type 1; assay: [3H]4-MA binding, human type 1 isozyme expressed in Rat-1A cells; conditions: read-out: % Inhibition of [^3 H]4-MA binding
Source text: as §1, §2, §3

[7] = biological target: T1, human 5α-reductase isozyme type 2; assay: 4-[14C]testosterone reduction, human type 2 isozyme; format: biochemical; conditions: for inhibition at 1 µM / inhibition at 3 µM / inhibition at 10 µM / inhibition at 30 µM / inhibition at 100 µM: read-out: % Inhibition of 5α-reduction
Source text: as §1, §2, §4

[8] = biological target: rat small intestinal maltase; conditions: cited from earlier work
[9] = tested on: forehead sebum production; assay: Forehead sebum production (L/R ratio), human male; format: in vivo
Protocol: A volunteer was used to test and analyze sebum production from the forehead region. The forehead was washed thoroughly by soap twice and cleaned by 70% isopropyl alcohol twice. Sebum production was measured 30 to 60 minutes later by a sebum meter (Courage/Khazaka Electronic GmbH, Germany). The sebum meter tape probe (7 mm×8 mm) covered 56 mm^2 area in each measurement. Ten measurements were made within the 4 cm square area (16 cm^2) located at the middle of the left or right side forehead between the eyebrow and the hair line.
The sebum meter detected the difference in the transparency of the tape before and after the tape was placed on the forehead for 30 seconds and expressed the difference in an arbitrary number (S-value) between 0 to 300 (or higher). S-values of sebum accumulated on the foreheads of men are usually 200 to 300.

[10] = ethanol solution

Row | Compound | 5α-DHT production by human prostate cancer cells [1] | reduction of weights of ventral prostate and preputial organ ([3]; 5 mg ip daily, 14 days) [%] | general health / organ appearance ([3]; rat, in vivo) | inhibition at 1 µM [4] [%] | inhibition at 3 µM [4] [%] | inhibition at 10 µM [4] [%] | inhibition at 30 µM [4] [%] | inhibition at 100 µM [4] [%] | inhibition at 1 µM [5] [%] | inhibition at 3 µM [5] [%] | inhibition at 10 µM [5] [%] | inhibition at 30 µM [5] [%] | inhibition at 1 µM [6] [%] | inhibition at 3 µM [6] [%] | inhibition at 10 µM [6] [%] | inhibition at 30 µM [6] [%] | inhibition at 100 µM [6] [%] | inhibition at 1 µM [7] [%] | inhibition at 3 µM [7] [%] | inhibition at 10 µM [7] [%] | other results
1 | O=C(O[C@@H]1Cc2c(O)cc(O)cc2O[C@@H]1c1cc(O)c(O)c(O)c1)c1cc(O)c(O)c(O)c1 [EGCG, (-)Epigallocatechin-3-gallate] | reduced 5α-DHT production | 10 to 35 | appeared to be as healthy as rats in other groups | < 10 | 12 | 55 | 72 | 89 | 22 | 23 | 34 | 89 | 29 | 47 | 77 | 88 | 86 | < 10 | < 10 | < 10 | body weight decrease ([2]; 15 mg ip/day, 7 days): about 15%; coagulating gland weight ([2]; 15 mg ip/day, 7 days): 34 % of organ weight in normal rats; dorsolateral prostate weight ([2]; 15 mg ip/day, 7 days): 46 % of organ weight in normal rats; kidney weight ([2]; 15 mg ip/day, 7 days): 74 % of organ weight in normal rats; preputial gland weight ([2]; 15 mg ip/day, 7 days): 35 % of organ weight in normal rats; seminal vesicle weight ([2]; 15 mg ip/day, 7 days): 41 % of organ weight in normal rats; testis weight ([2]; 15 mg ip/day, 7 days): 84 % of organ weight in normal rats; ventral prostate weight ([2]; 15 mg ip/day, 7 days): 46 % of organ weight in normal rats; final body weight ([2]; 15 mg ip/day, 7 days, normal 232±10 g): 147 ± 14 g; final body weight reduction vs normal rats ([2]; end of study): about 36%; reduction of body weight increase ([3]; 5 mg ip daily, 14 days): about 35%; fat content under the skin ([3]; rat, in vivo): appeared less; inhibition at 100 µM [5]: 98%; activity on type 2 isozyme ([7]; enzymatic assay, concentrations below 30 μM for ECG/EGCG): did not inhibit the Type 2 isozyme; inhibition at 30 µM [7]: < 10%; inhibition at 100 µM [7]: 73%; IC50 [8]: 50 to 500 µM
2 | CCCCC/C=C\C/C=C\C/C=C\CCCCC(=O)O [γ-Linolenic acid, γ-linolenic acid] | can inhibit the conversion of testosterone to 5α-DHT | 10 to 35 | appeared to be as healthy as rats in other groups | 22 | 49 | 63 | 72 | 88 | 31 | 52 | 89 | 99 | 20 | 54 | 65 | 79 | 85 | 30 | 48 | 60 | IC50 ([1]; Homo sapiens, LNCaP, read-out: IC50 with the prostate cancer cells): 10 ± 5 µM; L/R sebum ratio at end of treatment ([9]; 20 mg twice a day, 6 days): 0.22; L/R sebum ratio recovered after treatment stopped ([9]; 16 days after stop): 1.20±0.14; effect on body weight increase ([3]; 5 mg ip daily, 14 days): not EC or γ-LA; inhibition at 30 µM [7]: 88%; inhibition at 100 µM [7]: 99%; oxidation products by TLC ([10]; 5 weeks of storage): two additional more polar products; changes of the compound by TLC ([10]; refrigerated for 3 weeks): no detectable changes
